Legend:
Format in all cases: cell-based
Parental 293 = assay: MTT cytotoxicity assay, parental 293 cells; settings: percentage of untreated control cells
Protocol: This assay evaluates the cytotoxic effects of the novel isoquinolone compounds based on the cellular viability under chronic treatments. Viable cells but not dead cells can turn the substrate into a colored product, which yields higher absorbance. […] A low percentage indicates low cytoviability (or high cytotoxicity).
5. Cytotoxicity Test Using MTT Assay
Cells were seeded into clear 96-well plate at an appropriate density in 100 μl growth medium and were allowed to grow overnight. The novel isoquinolone compounds were diluted to desired concentrations using fresh growth medium, and these dilutions were used to replace the growth media in each well. After incubating for 24-96 h, 10 μl of the MTT labeling reagent (Roche) was added to each well and the cells were incubated in a CO2 incubator for 4 h. 100 μl solubilization buffer was then added into each well and incubated overnight for complete solubilization of the purple formazan crystals. […] Each condition was performed in triplicate in every experiment and the results were expressed as % of blank control±SD.

MT1 receptor [1] = biological target: T1, MT1 receptor (Homo sapiens, UniProt P48039); assay: CRE-Luc (luciferase reporter gene) assay, MT1; parameters: expressed in transfected cells; settings: HEK 293-pCREluc cells with MT1; inhibition of forskolin response
Protocol: The luciferase reporter gene assay offers another way to measure melatonin receptor activation. Cells expressing cAMP-responsive element-driven luciferase reporter gene (293-pCREluc) and either the MT1 or MT2 receptor are treated with forskolin (a substance which stimulates cAMP production as well as the subsequent luciferase gene expression) alone or with a novel isoquinolone compound. As melatonin receptor activation inhibits cAMP production, any suppression in the expression of luciferase leads to a decrease in enzymatic activities and a reduction in the amount of luminescence signal generated.
The luciferase assay, a reporter gene assay, was performed to confirm the ability of the invention to activate the melatonin receptors. Prior to the assay, HEK (human embryonic kidney) 293 cells are stably transfected with cAMP-responsive element-driven luciferase reporter gene (293-pCREluc) and cDNAs encoding MT1 or MT2 receptors. The cells are then exposed to the novel isoquinolone compounds, after which the substrate luciferin is added and the resulting luminescence measured.
Prior to the assay human embryonic kidney (HEK) 293 cells (CRL-1573, ATCC) is maintained at 37° C. in minimum essential medium (MEM) supplemented with 10% fetal bovine serum (FBS), 100 units/ml penicillin and 100 μg/ml streptomycin in a humidified atmosphere containing 5% CO2. Human embryonic kidney 293 cells stably transfected with cAMP-responsive element-driven luciferase reporter gene (293-pCREluc) are established and maintained in growth medium supplemented with 300 μg/ml G418 sulphate.
For luciferase assays, HEK-293 cells stably expressing pCRE-luciferase are seeded at a density of 15,000 cells/well into 96 well plates. Transfection is carried out using Lipofectamine Plus® reagent at 0.2 μl of both Plus and lipofectamine reagents with 50 ng cDNAs encoding MT1 or MT2 receptors per well. After a 3 hour transfection period at 37° C., 50 μl of DMEM with 20% fetal calf serum (FCS) is added into the wells and the plate is incubated at 37° C. for 48 h prior to 24 hour serum starvation. […]
Cells are harvested by replacing medium in the well by 50 μl luciferase lysis buffer. The Berthold microplate luminometer is maintained at 25° C. throughout the assay. Injector M connected to an empty tube and P connected to the drug tube are set to inject 25 μl of luciferin into appropriate wells. A 1.6 second delay time followed by a 1 second measuring time period is assigned to injector M, whereas injector P is measured for 10 seconds after luciferase substrate is introduced into the well. Results are expressed as relative luminescent units (RLU). Where indicated, agonist-induced activity is expressed as a percentage of the RLU obtained with forskolin.

MT2 receptor = biological target: T2, MT2 receptor (Homo sapiens, UniProt P49286); assay: ERK phosphorylation assay, MT2; parameters: expressed in transfected cells; settings: HEK293 cells; isoquinolone 1 μM or 2-iodomelatonin 100 nM, 5 min; against unstimulated control cells
T2 sequence (P49286 1-362): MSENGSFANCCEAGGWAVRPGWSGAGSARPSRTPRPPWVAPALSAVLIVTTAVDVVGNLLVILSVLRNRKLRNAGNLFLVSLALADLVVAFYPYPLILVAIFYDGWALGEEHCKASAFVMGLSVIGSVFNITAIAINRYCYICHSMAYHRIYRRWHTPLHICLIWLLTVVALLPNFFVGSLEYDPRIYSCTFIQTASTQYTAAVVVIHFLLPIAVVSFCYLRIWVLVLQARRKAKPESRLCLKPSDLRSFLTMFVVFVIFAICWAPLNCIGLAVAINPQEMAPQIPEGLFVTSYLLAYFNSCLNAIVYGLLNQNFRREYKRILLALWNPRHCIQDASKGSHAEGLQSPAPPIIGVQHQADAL
From the text: 3. ERK Phosphorylation Assay This assay indicates the ability of the novel compounds to activate MT1 or MT2 receptors by measuring downstream events of the activated receptor, in this case ERK phosphorylation. The amount of phosphorylated ERK1/2 was detected and quantified in western blots. The data in Table 2 is expressed as the fold stimulation against the unstimulated control cells. 6. Detection of ERK phosphorylation […] Stimulation was terminated by aspiration on ice and immediate lysis by 200 μl of 1× protein gel loading buffer. Lysates were denatured by boiling for 5 min and cooled at room temperature until loading. 30 μl of each lysate was separated on 12% SDS-PAGE and transferred to nitrocellulose membrane by electroblotting. Success of transfer was visualized by Ponceau S staining. All subsequent incubations were under gentle agitation (˜100 strokes/min). […] Primary antisera against phosphorylated- or total-ERK1/2 were incubated with the blocked membrane at an appropriate dilution (1:4000-1:2000) in Blotto for overnight at 4° C. The membrane was washed with fresh Blotto for 3 times of 15 min each, then incubated with secondary antiserum (horseradish peroxidase-conjugated anti-rabbit IgG) at the dilution of 1:1000 in 1×TBS for 1 h at room temperature. The membrane was quickly rinsed with excessive 1×TBS for 3 times, and followed by 4 washes of 1×TBS for 10 min. By the end, a premix of luminol-based chemiluminescence substrate solution was prepared (1 ml for every 8 cm^2 of membrane) and overlaid onto the washed membrane to incubate for 1 min. After removing excessive solution, the membrane was covered with saran wrap and an autograph with appropriate exposure was developed on X-ray film in dark room. The image was scanned and the band intensities quantified using ImageJ 1.34. Data was expressed as the percentage response of the vehicle-treated or untreated samples. Experiments were performed at least 3 times and the average responses±SEM were presented.

MT1 receptor [2] = biological target: T1, MT1 receptor; assay: cAMP assay, MT1; parameters: expressed in transfected cells; host or cells: COS-7 (monkey kidney fibroblast); settings: inhibition of forskolin-stimulated cAMP production; MT1-expressing cells

T1 sequence (P48039 whole entry): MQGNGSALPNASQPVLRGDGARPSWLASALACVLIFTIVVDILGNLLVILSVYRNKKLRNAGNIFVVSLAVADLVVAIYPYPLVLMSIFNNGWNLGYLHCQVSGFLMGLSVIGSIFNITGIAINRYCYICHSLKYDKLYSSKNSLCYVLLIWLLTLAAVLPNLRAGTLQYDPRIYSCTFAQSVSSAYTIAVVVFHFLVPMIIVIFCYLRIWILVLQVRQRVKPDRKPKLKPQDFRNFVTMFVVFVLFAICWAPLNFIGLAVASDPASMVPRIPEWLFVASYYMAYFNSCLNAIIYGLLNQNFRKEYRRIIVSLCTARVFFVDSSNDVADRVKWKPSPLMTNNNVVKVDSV

SMILES | MTT Assay Parental 293 % Viability ± SEM (Parental 293) [%] | CRE-Luc Assay MT1 % Inh ± SEM of 1 μM Fsk (MT1 receptor [1]) [%] | ERK Phosphorylation MT2 Fold Stim. (MT2 receptor) [Fold] | cAMP Assay MT1 % Inh (MT1 receptor [2]) [%]
Cn1ccc2cc(OC(=O)c3ccccc3)c(OC(=O)c3ccccc3)cc2c1=O [IS039] | 104.9 ± 4.8 | 73.0 ± 5.0 | 1.98 | 8.8 ± 5.8
COc1cc(COc2cc3ccn(C)c(=O)c3cc2OC)cc(OC)c1 [IS042] | 60.7 ± 0.4 | 73.9 ± 7.8 | 5.59 | 81.8 ± 6.2
COc1cccc(COc2cc3ccn(C)c(=O)c3cc2OC)c1 [IS044] | 78.6 ± 5.8 | 82.3 ± 6.0 | 3.50 | 72.9 ± 7.5
COc1cccc(COc2cc3c(=O)n(C)ccc3cc2OC)c1 [IS521] | 66.1 ± 4.9 | 84.2 ± 5.5 | 3.01 | 19.4 ± 17.4
COc1cc(COc2cc3c(=O)n(C)ccc3cc2OC)cc(OC)c1 [IS523] | 37.5 ± 0.9 | 70.4 ± 5.6 | 2.07 | 18.6 ± 14.7
COc1cc2ccn(C)c(=O)c2cc1OCc1ccc(C(C)(C)C)cc1 [IS526] | 27.5 ± 18.9 | 36.2 ± 11.8 | – | 26.9 ± 24.1
COc1cccc(COc2c(OC)ccc3c(=O)n(C)ccc23)c1 [IS527] | 36.8 ± 0.0 | 82.4 ± 6.4 | 2.21 | 28.3 ± 16.0
COc1cc(COc2c(OC)ccc3c(=O)n(C)ccc23)cc(OC)c1 [IS528] | 32.2 ± 2.3 | 69.7 ± 10.1 | 1.71 | 39.2 ± 12.0
COc1ccc2c(=O)n(C)ccc2c1OCc1ccc(C)cc1 [IS529] | 35.9 ± 0.4 | 67.7 ± 5.4 | 1.23 | 34.0 ± 17.4

From US8389544B2, “Isoquinolone compounds as subtype-selective agonists for melatonin receptors MT1 and MT2” (The Hong Kong University of Science and Technology, priority 2007, dated 2013)
